Measurements reported in publication PMC11022729 (Advanced Science, 2024).
Where “and” joins values, the source holds several entries; their conditions need not be identical. Equal entries are not always repeated.

Biological target: T1, human Slack (Homo sapiens, UniProt Q5JUK3)
T1 construct: host or cells: HEK293
T1 sequence (Q5JUK3 1-1230): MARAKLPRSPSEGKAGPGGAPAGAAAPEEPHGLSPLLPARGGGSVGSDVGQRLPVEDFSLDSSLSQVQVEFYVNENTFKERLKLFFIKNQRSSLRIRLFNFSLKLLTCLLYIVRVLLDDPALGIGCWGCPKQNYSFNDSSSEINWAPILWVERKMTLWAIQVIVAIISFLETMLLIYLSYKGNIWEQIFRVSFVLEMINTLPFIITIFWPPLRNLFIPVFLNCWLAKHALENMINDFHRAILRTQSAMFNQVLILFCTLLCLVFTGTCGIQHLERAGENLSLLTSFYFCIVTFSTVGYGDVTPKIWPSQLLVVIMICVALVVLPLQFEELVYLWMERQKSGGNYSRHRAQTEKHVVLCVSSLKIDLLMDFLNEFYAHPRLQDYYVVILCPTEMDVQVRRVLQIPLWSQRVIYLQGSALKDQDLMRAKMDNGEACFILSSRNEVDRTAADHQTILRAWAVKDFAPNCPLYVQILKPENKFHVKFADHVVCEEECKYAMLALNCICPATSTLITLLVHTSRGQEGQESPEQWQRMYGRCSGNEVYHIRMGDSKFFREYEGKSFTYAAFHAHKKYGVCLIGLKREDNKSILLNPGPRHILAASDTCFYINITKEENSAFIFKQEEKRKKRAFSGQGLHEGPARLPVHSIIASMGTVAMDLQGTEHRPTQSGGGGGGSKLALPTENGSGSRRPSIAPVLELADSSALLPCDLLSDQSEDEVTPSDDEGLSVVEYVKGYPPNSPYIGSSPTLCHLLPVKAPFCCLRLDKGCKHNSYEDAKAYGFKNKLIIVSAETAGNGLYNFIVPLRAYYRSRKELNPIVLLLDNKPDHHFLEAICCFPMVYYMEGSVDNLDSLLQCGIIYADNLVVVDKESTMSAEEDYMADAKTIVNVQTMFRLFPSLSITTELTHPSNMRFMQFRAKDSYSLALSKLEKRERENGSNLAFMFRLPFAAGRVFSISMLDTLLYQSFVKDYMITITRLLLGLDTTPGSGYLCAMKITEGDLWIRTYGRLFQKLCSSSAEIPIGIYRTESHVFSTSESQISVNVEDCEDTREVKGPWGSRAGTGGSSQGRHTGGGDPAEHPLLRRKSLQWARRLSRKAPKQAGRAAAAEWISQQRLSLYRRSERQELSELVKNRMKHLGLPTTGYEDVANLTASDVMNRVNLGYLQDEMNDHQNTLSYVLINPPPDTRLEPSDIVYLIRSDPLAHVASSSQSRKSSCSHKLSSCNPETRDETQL
Experiment: FluxOR potassium ion channel assay in HEK-Slack cells
Assay type: cell-based
Protocol: The functional activity of this series of compounds against human Slack was determined using a cell‐based FluxOR potassium ion channel assay in cultured HEK293 cells stably expressing human Slack (herein referred to as HEK‐Slack cells) and a Na^+‐free assay buffer to prevent compound‐independent Slack activation by monovalent cations.^[ [14], [24] ^] […] Of the 114 newly synthesized compounds, 31 acted as Slack activators to varying extents. Accordingly, we deemed eight of these as the most interesting candidates.
To determine the Slack‐activating efficacy and potency of the novel compounds, a commercial FluxOR potassium ion channel assay (#10 017; Invitrogen) was used. HEK‐Slack cells were plated at a density of 50 000 cells per well on a poly‐D‐lysine coated (75 µg mL^−1, Sigma–Aldrich) 96‐well, black‐walled microplate with clear bottom (#655 090; Greiner Bio‐One) in DMEM (100 µL per well) containing 10% FBS and 1% penicillin/streptomycin 24 h prior to assaying. In the initial experiments shown in Figure S3A–F (Supporting Information), HEK‐Slack cells were plated at a density of 100 000 cells/well 48 h prior to the assay. On the day of the experiment, the cells were loaded with FluxOR dye according to the manufacturer's protocol. A Na^+‐free assay buffer, adjusted to pH 7.4 with KOH, containing 140 mM choline chloride, 5 mM KCl, 2 mM CaCl2, 2 mM MgSO4, 10 mM HEPES, and 5.55 mM glucose was used. To reduce background fluorescence, all assay components were complemented with a 10% BackDrop Background Suppressor (#B10511; Invitrogen).
All compounds were prepared as a 333 mM stock in DMSO and diluted on the experimental day to a final concentration of 100, 50, 25, 12.5, 6.25, 3.125, or 1.5625 µM in an assay buffer with DMSO adjusted to 0.03%. Before treatment, the cells were washed, and the medium was exchanged for the assay buffer. In a total volume of 90 µL per well, the cells were then incubated for 30 min at 37 °C with compounds at the indicated concentrations, or 0.03% DMSO alone as the vehicle. […] Fluorescence was measured using an Infinite M200 microplate reader (Tecan) with excitation at 485 nm (9 nm bandwidth) and emission at 525 nm (20 nm bandwidth) in the bottom read mode. First, the baseline fluorescence of the individual wells was established. Thereafter cells were stimulated with 20 µL Tl2SO4 (5 mM) solution injected at 100 µL s^−1, and fluorescence was further recorded for 100 s. Assays were run in triplicate. For all time points, the ratio of fluorescence to baseline fluorescence was calculated first for individual wells, and the average was then used.
Dose‐response curves comprising six concentrations were obtained in triplets using fluorescence/fluorescenceBaseline ratios at the 100th s.

[1] = HEK-Slack cells, Na+-free assay buffer, mean (95% confidence interval)

SMILES	Emax [%]	EC50 [1]	EC50 (first preliminary experiments, Na+-free buffer with 2 mM Ca2+, 2 mM Mg2+ and 0.03% DMSO) [µM]
CN1CCN(C2=Nc3ccccc3Oc3ccc(Cl)cc32)CC1 [Loxapine, reference compound]	100	20.7 µM	23.4
O=C(O)COCCN1CCN(C2=Nc3ccccc3Oc3ccc(Cl)cc32)CC1 [Compound 6]	96.2	30 µM and 30.3 µM	
